Measurements from patent US20250228239A1, “MOLECULES HAVING PESTICIDAL UTILITY, AND INTERMEDIATES, COMPOSITIONS, AND PROCESSES, RELATED THERETO” (priority 2024, published 2025).

What was measured:
Assay type in all cases: in vivo
[1] = tested on: Cabbage Looper (Trichoplusia ni, TRIPNI); test: Bioassays on Cabbage Looper (CL), 128-well diet tray assay; details: Trichoplusia ni; Cabbage Looper, Table ABC / ABC-DP rating; read-out: CL rating
Method in brief: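 One to five second-instar larvae per well on artificial diet surface-treated with 50 μg/cm^2 test molecule (applied in 90:10 acetone-water, dried). Held 5–7 days at 25° C, 14:10 light-dark; percent mortality recorded per well and averaged over eight wells.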

[2] = tested on: Beet Armyworm (Spodoptera exigua, LAPHEG); test: Bioassays on Beet Armyworm (BAW), 128-well diet tray assay; details: Spodoptera exigua; Beet Armyworm, Table ABC / ABC-DP rating; read-out: BAW rating
Method in brief: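 Second-instar larvae, one to five per well, were placed on artificial diet surface-treated with 50 μg/cm^2 compound in 90:10 acetone-water, eight wells per treatment. Trays were held 5–7 days at 25 °C, 14:10 light-dark. Percent mortality per well was averaged over eight wells.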

[3] = tested on: Yellow Fever Mosquito (Aedes aegypti, AEDSAE); details: Yellow Fever Mosquito, Table ABC / ABC-DP rating
Method in brief: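 Mortality after 3 days at room temperature is the read-out, scored well by well and converted to a rating. Test molecules came from 4000 ppm stocks in DMSO, further diluted in 90:10 water/acetone, and were exposed to roughly 1-day-old larvae suspended in liver-powder water.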

| Structure (SMILES) | pest or weed control at 50 µg/cm2 [1] | pest or weed control at 50 µg/cm2 [2] | YFM rating [3] |
| --- | --- | --- | --- |
| Cc1cc(NC(=O)[C@H]2[C@H](c3ccc(F)c(Cl)c3)C2(Cl)Cl)cc(C(=O)NCC(F)(F)F)c1Cl (relative stereo) [F2038, trans-2-Chloro-5-(2,2-dichloro-3-(3-chloro-4-fluorophenyl)cyclopropane-1-carboxamido)-3-methyl-N-(2,2,2-trifluoroethyl)benzamide] | 50 to 100% | 50 to 100% | A (80–100) |
| Cc1c(Cl)cc(NC(=O)[C@H]2[C@H](c3ccc(F)c(Cl)c3)C2(Cl)Cl)cc1C(=O)NCC(F)(F)C(F)(F)F (relative stereo) [F2043, trans-3-Chloro-5-(2,2-dichloro-3-(3-chloro-4-fluorophenyl)cyclopropane-1-carboxamido)-2-methyl-N-(2,2,3,3,3-pentafluoropropyl)benzamide] | 50 to 100% | 50 to 100% | A (80–100) |
| Cc1c(Cl)cc(NC(=O)[C@H]2[C@H](c3ccc(F)c(Cl)c3)C2(Cl)Cl)cc1C(=O)NCCCCl (relative stereo) [F2044, trans-3-Chloro-N-(3-chloropropyl)-5-(2,2-dichloro-3-(3-chloro-4-fluorophenyl)cyclopropane-1-carboxamido)-2-methylbenzamide] | 50 to 100% | 50 to 100% | A (80–100) |
| O=C(NCC(F)(F)F)c1cc(NC(=O)[C@H]2[C@H](c3ccc(F)c(Cl)c3)C2(Cl)Cl)cc(C(F)(F)F)c1Cl (relative stereo) [F2054, trans-2-Chloro-5-(2,2-dichloro-3-(3-chloro-4-fluorophenyl)cyclopropane-1-carboxamido)-N-(2,2,2-trifluoroethyl)-3-(trifluoromethyl)benzamide] | 50 to 100% | 50 to 100% | A (80–100) |
| O=C(NCCC(F)(F)F)c1cc(NC(=O)[C@H]2[C@H](c3ccc(F)c(Cl)c3)C2(Cl)Cl)cc(C(F)(F)F)c1Cl (relative stereo) [F2055, trans-2-Chloro-5-(2,2-dichloro-3-(3-chloro-4-fluorophenyl)cyclopropane-1-carboxamido)-3-(trifluoromethyl)-N-(3,3,3-trifluoropropyl)benzamide] | 50 to 100% | 50 to 100% | A (80–100) |
| O=C(NCC(F)(F)C(F)(F)F)c1cc(NC(=O)[C@H]2[C@H](c3ccc(F)c(Cl)c3)C2(Cl)Cl)cc(C(F)(F)F)c1Cl (relative stereo) [F2056, trans-2-Chloro-5-(2,2-dichloro-3-(3-chloro-4-fluorophenyl)cyclopropane-1-carboxamido)-N-(2,2,3,3,3-pentafluoropropyl)-3-(trifluoromethyl)benzamide] | 50 to 100% | 50 to 100% | A (80–100) |
| COc1c(F)cc(NC(=O)[C@H]2[C@H](c3ccc(F)c(Cl)c3)C2(Cl)Cl)cc1C(=O)NCC(F)(F)F (relative stereo) [F2058, trans-5-(2,2-Dichloro-3-(3-chloro-4-fluorophenyl)cyclopropane-1-carboxamido)-3-fluoro-2-methoxy-N-(2,2,2-trifluoroethyl)benzamide] | 50 to 100% | 50 to 100% | A (80–100) |
| COc1c(F)cc(NC(=O)[C@H]2[C@H](c3ccc(F)c(Cl)c3)C2(Cl)Cl)cc1C(=O)NCCC(F)(F)F (relative stereo) [F2059, trans-5-(2,2-Dichloro-3-(3-chloro-4-fluorophenyl)cyclopropane-1-carboxamido)-3-fluoro-2-methoxy-N-(3,3,3-trifluoropropyl)benzamide] | 50 to 100% | 50 to 100% | A (80–100) |
| COc1c(F)cc(NC(=O)[C@H]2[C@H](c3ccc(F)c(Cl)c3)C2(Cl)Cl)cc1C(=O)NCC(F)(F)C(F)(F)F (relative stereo) [F2060, trans-5-(2,2-Dichloro-3-(3-chloro-4-fluorophenyl)cyclopropane-1-carboxamido)-3-fluoro-2-methoxy-N-(2,2,3,3,3-pentafluoropropyl)benzamide] | 50 to 100% | 50 to 100% | A (80–100) |
| Cc1c(F)cc(NC(=O)[C@H]2[C@H](c3ccc(F)c(Cl)c3)C2(Cl)Cl)cc1C(=O)NCC(F)(F)F (relative stereo) [F2063, trans-5-(2,2-Dichloro-3-(3-chloro-4-fluorophenyl)cyclopropane-1-carboxamido)-3-fluoro-2-methyl-N-(2,2,2-trifluoroethyl)benzamide] | 50 to 100% | 50 to 100% | A (80–100) |
| Cc1c(F)cc(NC(=O)[C@H]2[C@H](c3ccc(F)c(Cl)c3)C2(Cl)Cl)cc1C(=O)NCC(F)(F)C(F)(F)F (relative stereo) [F2064, trans-5-(2,2-Dichloro-3-(3-chloro-4-fluorophenyl)cyclopropane-1-carboxamido)-3-fluoro-2-methyl-N-(2,2,3,3,3-pentafluoropropyl)benzamide] | 50 to 100% | 50 to 100% | A (80–100) |
| O=C(NCCNC(=O)C(F)(F)F)c1cc(NC(=O)[C@H]2[C@H](c3cc(Cl)cc(Cl)c3)C2(Cl)Cl)ccc1Cl (relative stereo) [F2066, trans-2-Chloro-5-(2,2-dichloro-3-(3,5-dichlorophenyl)cyclopropane-1-carboxamido)-N-(2-(2,2,2-trifluoroacetamido)ethyl)benzamide] | 50 to 100% | 50 to 100% | A (80–100) |
| CC(=O)NCCCNC(=O)c1cc(NC(=O)[C@H]2[C@H](c3cc(Cl)cc(Cl)c3)C2(Cl)Cl)ccc1Cl (relative stereo) [F2067, trans-N-(3-Acetamidopropyl)-2-chloro-5-(2,2-dichloro-3-(3,5-dichlorophenyl)cyclopropane-1-carboxamido)benzamide] | 50 to 100% | 50 to 100% | A (80–100) |
| CC(=O)NCCCCNC(=O)c1cc(NC(=O)[C@H]2[C@H](c3cc(Cl)cc(Cl)c3)C2(Cl)Cl)ccc1Cl (relative stereo) [F2068, trans-N-(4-Acetamidobutyl)-2-chloro-5-(2,2-dichloro-3-(3,5-dichlorophenyl)cyclopropane-1-carboxamido)benzamide] | 50 to 100% | 50 to 100% | A (80–100) |
| CC(=O)NCCCCCNC(=O)c1cc(NC(=O)[C@H]2[C@H](c3cc(Cl)cc(Cl)c3)C2(Cl)Cl)ccc1Cl (relative stereo) [F2069, trans-N-(5-Acetamidopentyl)-2-chloro-5-(2,2-dichloro-3-(3,5-dichlorophenyl)cyclopropane-1-carboxamido)benzamide] | 50 to 100% | 50 to 100% | A (80–100) |
| CNC(=O)CCNC(=O)c1cc(NC(=O)[C@H]2[C@H](c3cc(Cl)cc(Cl)c3)C2(Cl)Cl)ccc1Cl (relative stereo) [F2070, trans-2-Chloro-5-(2,2-dichloro-3-(3,5-dichlorophenyl)cyclopropane-1-carboxamido)-N-(3-(methylamino)-3-oxopropyl)benzamide] | 50 to 100% | 50 to 100% | A (80–100) |
| O=C(NCC(F)(F)c1ccccc1)c1cc(NC(=O)[C@H]2[C@H](c3cc(Cl)cc(Cl)c3)C2(Cl)Cl)ccc1Cl (relative stereo) [F2077, trans-2-Chloro-5-(2,2-dichloro-3-(3,5-dichlorophenyl)cyclopropane-1-carboxamido)-N-(2,2-difluoro-2-phenylethyl)benzamide] | 50 to 100% | 50 to 100% | B (More than 0 – Less than 80) |
| CCC(F)(F)CNC(=O)c1cc(NC(=O)[C@H]2[C@H](c3cc(Cl)cc(Cl)c3)C2(Cl)Cl)ccc1Cl (relative stereo) [F2086, trans-2-Chloro-5-(2,2-dichloro-3-(3,5-dichlorophenyl)cyclopropane-1-carboxamido)-N-(2,2-difluorobutyl)benzamide] | 50 to 100% | 50 to 100% | A (80–100) |
| CCC(F)(F)CNC(=O)c1cc(NC(=O)[C@H]2[C@H](c3cc(Cl)cc(Cl)c3)C2(Cl)Cl)cc(F)c1Cl (relative stereo) [F2088, trans-2-Chloro-5-(2,2-dichloro-3-(3,5-dichlorophenyl)cyclopropane-1-carboxamido)-N-(2,2-difluorobutyl)-3-fluorobenzamide] | 50 to 100% | 50 to 100% | B (More than 0 – Less than 80) |
| CCOC(=O)C(F)(F)CNC(=O)c1cc(NC(=O)[C@H]2[C@H](c3cc(Cl)cc(Cl)c3)C2(Cl)Cl)cc(F)c1Cl (relative stereo) [F2089, trans-Ethyl 3-(2-chloro-5-(2,2-dichloro-3-(3,5-dichlorophenyl)cyclopropane-1-carboxamido)-3-fluorobenzamido)-2,2-difluoropropanoate] | 50 to 100% | 50 to 100% | A (80–100) |
